Experimental data taken from article PMC5378956, “Inhibition of delta-secretase improves cognitive functions in mouse models of Alzheimer's disease” (Nature Communications, 2017).
“Also recorded” adds a separate entry of the source.

Key:
[1] = NMR stability and thiol reactivity (cysteamine, β-mercaptoethanol); format: physicochemical
GAPDH = target: T1, GAPDH (Mus musculus, UniProt P16858); assay: GAPDH activity assay in primary neurons; format: cell-based
T1 construct: GAPDH activity in primary neurons; endogenous in cells; host or cells: primary neurons (mouse cortical)
T1 sequence (P16858 whole entry): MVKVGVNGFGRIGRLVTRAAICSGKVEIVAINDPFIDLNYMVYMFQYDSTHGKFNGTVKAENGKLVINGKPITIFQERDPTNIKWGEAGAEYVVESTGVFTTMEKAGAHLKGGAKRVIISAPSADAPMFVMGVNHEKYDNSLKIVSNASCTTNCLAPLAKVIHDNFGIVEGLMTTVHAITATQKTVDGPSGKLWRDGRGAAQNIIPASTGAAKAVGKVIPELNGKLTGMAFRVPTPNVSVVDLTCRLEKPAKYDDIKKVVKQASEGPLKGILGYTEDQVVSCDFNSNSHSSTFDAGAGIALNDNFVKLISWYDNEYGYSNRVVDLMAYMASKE
Experimental: GAPDH activity was assessed using the GAPDH Activity Assay Kit (Biovision) according to the manufacture's instructions.

[2] = tested on: δ-secretase-mediated truncation of tau
Experimental: A half medium was changed to fresh Neurobasal/B27 every 4 days. The neurons were maintained for 13 days in vitro (DIV). Compounds were pre-incubated with primary culture neurons for 30 min. […] The neuronal lysates were prepared for δ-secretase assay.

δ-secretase = target: T2, δ-secretase (Homo sapiens, UniProt Q99538); assay: DTT and L-cysteine reversibility of δ-secretase inhibition; format: biochemical; details: 10 mM DTT or L-cysteine, inhibitor at its IC50
T2 construct: tested with purified active δ-secretase, IC50 values for the top 8 candidates were calculated; purchased Sino Biological (Beijing, China)
T2 sequence (Q99538 18-323 limits assumed): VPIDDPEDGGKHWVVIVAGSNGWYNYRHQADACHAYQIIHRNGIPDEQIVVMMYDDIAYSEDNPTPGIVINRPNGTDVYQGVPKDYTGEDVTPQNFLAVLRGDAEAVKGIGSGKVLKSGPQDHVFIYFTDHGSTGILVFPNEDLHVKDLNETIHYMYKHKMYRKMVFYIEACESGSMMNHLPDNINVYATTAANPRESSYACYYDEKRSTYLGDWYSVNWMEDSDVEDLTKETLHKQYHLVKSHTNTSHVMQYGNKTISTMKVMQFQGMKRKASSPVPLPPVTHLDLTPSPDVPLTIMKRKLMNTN

Row | SMILES | reaction with β-mercaptoethanol [1] | stability by NMR spectroscopy ([1]; presence or absence of cysteamine) | GAPDH inhibition (GAPDH; 2 μM) | GAPDH inhibition (GAPDH; 50 μM) | OGD-induced cleavage of human tau (tau N368) [2] | recovery of δ-secretase activity on addition of reducing agents (δ-secretase)
1 | Nc1ccc(N2CCOCC2)c2nonc12 [compound 11, 7-(morpholin-4-yl)-2,1,3-benzoxadiazol-4-amine] | did not react; also recorded: unreactive | stable | failed to inhibit GAPDH | some inhibitory effect | inhibited by compound 11 in a dose-dependent manner | –
2 | Cn1c(=O)[nH]c(=O)c2c1nc(S)n2CC(O)COc1ccc(Cl)cc1 (stereo not drawn) [compound 38] | – | – | – | – | – | regained a substantial amount of activity
